Measured values as given in ChEMBL document CHEMBL4177594, “Design, synthesis, and evaluation of salicyladimine derivatives as multitarget-directed ligands against Alzheimer's disease” (Bioorg Med Chem, 2017).
Activity calls are given as the source filed them. The calls are words filed in the database; no cut-off is given here.

Columns and labels:
[1] = target: T1, Amine oxidase [flavin-containing] A (Homo sapiens, UniProt P21397); test: Inhibition of human MAO-A at 200 uM using p-tyramine as substrate preincubated for 15 mins followed by substrate addition measured after 20 mins by fluorescence-based Amplex Red MAO assay
T1 sequence (P21397 whole entry): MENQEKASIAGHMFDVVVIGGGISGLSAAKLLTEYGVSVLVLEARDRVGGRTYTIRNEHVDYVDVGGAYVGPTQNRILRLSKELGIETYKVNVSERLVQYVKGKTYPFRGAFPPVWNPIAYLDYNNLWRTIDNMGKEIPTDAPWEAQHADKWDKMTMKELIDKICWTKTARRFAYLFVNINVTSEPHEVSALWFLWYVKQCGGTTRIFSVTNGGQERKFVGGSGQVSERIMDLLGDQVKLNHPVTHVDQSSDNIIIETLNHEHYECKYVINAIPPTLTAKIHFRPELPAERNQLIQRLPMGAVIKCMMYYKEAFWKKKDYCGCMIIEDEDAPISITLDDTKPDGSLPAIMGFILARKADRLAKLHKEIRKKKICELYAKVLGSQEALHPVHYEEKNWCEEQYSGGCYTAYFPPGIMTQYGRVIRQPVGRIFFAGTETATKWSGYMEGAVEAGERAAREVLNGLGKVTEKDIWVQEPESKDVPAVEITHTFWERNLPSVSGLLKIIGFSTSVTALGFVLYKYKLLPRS

[2] = system: PC-12; test: Neuroprotective activity against H2O2-induced apoptosis in rat PC12 cells assessed as apoptotic cells at 25 uM after 24 hrs by Annexin V/FITC/propidium iodide staining-based flow cytometry (reference value: 52.3%); assay type: functional
[3] = system: BV-2; test: Neuroprotective activity against LPS-induced inflammation in mouse BV2 cells assessed as inhibition of LPS-induced NO production at 10 to 25 uM after 24 hrs in presence of LPS by Griess reaction based assay relative to resveratrol; assay type: functional, cell-based
[4] = system: PC-12; test: Neuroprotective activity against H2O2-induced apoptosis in rat PC12 cells assessed as late apoptosis cells level at 6.25 uM after 24 hrs by Annexin V/FITC/propidium iodide staining-based flow cytometry (reference value: 1.9%); assay type: functional
[5] = system: PC-12; test: Neuroprotective activity against H2O2-induced apoptosis in rat PC12 cells assessed as viable cells level at 12.5 uM after 24 hrs by Annexin V/FITC/propidium iodide staining-based flow cytometry (reference value: 96.2%); assay type: functional
[6] = system: PC-12; test: Neuroprotective activity against H2O2-induced apoptosis in rat PC12 cells assessed as late apoptosis cells level at 50 uM after 24 hrs by Annexin V/FITC/propidium iodide staining-based flow cytometry (reference value: 1.9%); assay type: functional

- inhibition (INH) [1]: Not Active
SMILES: Oc1ccc(/C=N/c2ccc(OCc3ccccc3)cc2)c(O)c1O
- Activity [2]: 11.2%
- Activity [3]: Active
- Activity [4]: 11.9%
- Activity [5]: 69.8%
- Activity [6]: 2.3%
